Data on 11 molecules can be found in patent publication US8106007B2, “Conjugates of a polypeptide and a pentasaccharide” (N.V. Organon, priority 2005, dated 2012).

Like-named read-outs stand apart in the source and are kept apart here. Where a SMILES comes first, the peptide text is derived from it. [ ]: non-standard residue; d: D form. The star is where a group is joined. X1 = CO[C@H]1O[C@H](COS(=O)(=O)O)[C@@H](O[C@@H]2O[C@@H](C(=O)O)[C@@H](O[C@H]3O[C@H](COS(=O)(=O)O)[C@@H](O[C@@H]4O[C@H](C(=O)O)[C@@H](O[C@H]5O[C@H](COS(=O)(=O)O)[C@@H](OCCOCCOCCOCCNC(=O)COCCOCCOCCOCCSC6CC(=O)N(CCCC(=O)*)C6=O)[C@H](OC)[C@H]5OC)[C@H](OC)[C@H]4OC)[C@H](OS(=O)(=O)O)[C@H]3OS(=O)(=O)O)[C@H](OC)[C@H]2OC)[C@H](OS(=O)(=O)O)[C@H]1OS(=O)(=O)O; d(hArg(Et2)) = CCN=C(NCC)NCCCC[C@@H](N)C(=O)O; hArg(Et2) = CCN=C(NCC)NCCCC[C@H](N)C(=O)O; dPhe(4-Cl) = N[C@H](Cc1ccc(Cl)cc1)C(=O)O; d2Nal = N[C@H](Cc1ccc2ccccc2c1)C(=O)O; d3Pal = N[C@H](Cc1cccnc1)C(=O)O

The target in one data set is hATIII (Homo sapiens, UniProt P01008). As to the kind of experiment: Competitive hATIII binding assay using Biomolecular Interaction Analysis (BIA). The conditions noted are these: for IC50: 15 nmol/L hATIII, compound 9 immobilised on chip, 25° C., read-out: IC50 BIA (competitive ATIII binding); for competitive binding potential to ATIII (in words): compared to parent pentasaccharide-spacer residue / parent peptide. As to the method:
The sensorgrams and report points were analysed with blanc flow cell subtraction using BIAevaluation 3.2. IC50 values were calculated using graphpad Prism 3.0.
Principle and aim of the test: Biomolecular Interaction Analysis (BIA) studies the interaction between (bio)molecules by covalent immobilisation of one of the interactants to a sensor chip surface, and injection of the other interactant in the continuous buffer flow over this surface. Binding is registered as a change in refractive index on this surface and is proportional to the molecular weight (Mw) of the interactants.
To study the interaction between hATIII and pentasaccharide conjugates, compound 9 is covalently coupled to the sensor chip surface. Binding of hATIII to the pentasaccharide generates a strong signal as a resultant of the difference in Mw between the bound (small) pentasaccharide ligand and the (large) hATIII analyte. Preincubated samples containing a constant concentration of hATIII and variable concentrations of free pentasaccharide or conjugate were injected over the surface. Binding of pentasaccharide or conjugate to ATIII during preincubation will result in a reduction of ATIII binding to the immobilised pentasaccharide. This competitive binding assay allows determination of IC50 values for each pentasaccharide conjugate.
Experimental procedure: Compound 9 is covalently coupled to a CM5 sensor chip by amine coupling at pH 8.5. […] The unreacted hydroxysuccinimide groups are reacted with ethanolamine for 7 min. The surface is regenerated by three short injections of 5 μL 5 mol/L NaCl, at a flow rate of 25 μL/min.
A concentration series of hATIII was tested to estimate a sensitive concentration for inhibition (at 80% of maximum binding). At a flow rate of 20 μL/min three minute injections were carried out at both blanc and immobilised surface in series at 25° C. A report point is generated at 170 s. The surface is regenerated by a 12 s injection of 5 mol/L NaCl.
The hATIII injection or report point without pentasaccharide conjugate is set at 100% binding. The relative % binding of the pentasaccharides and the conjugates compared to maximum binding was used to generate a sigmoidal curve (with variable slope) by plotting Log [concentration] vs. % binding from which the IC50 values were derived.

A short description of data set [1]: Pharmacokinetics in rat after 125I labeling, not corrected for dehalogenation. As to the method:
(§1) After labeling, the conjugate was purified by gel filtration on Sephadex G25 and anion exchanger HiTrap Q10. […] In order to prevent accumulation of ^125I^− in the thyroid, rats were orally treated with 10 mg/kg potassium iodide prior to administration of compound.
The correct determination of the fate of ^125I-labeled conjugates might be affected aversely by metabolic intracellular endogenous dehalogenation to give free ^125I^− in circulation.

Another data set has as its system glucose levels. Put plainly: Glucose suppression test in vivo in rats. The settings on record: i.v. doses of 24 and 48 nmol/kg (FIG. 21, 22). More on the design: species or system rat.
For data set [2] the following is noted: species not given; cited from earlier work.
For data set [3] the following is noted: in rat, i.v., Chan et al. 1991; cited from earlier work.
The conditions of data set [4]: rat, in vivo, iv. The method, then: as §1
The conditions of data set [5]: rat, in vivo, iv, 3.5 nmol/kg.
Source text: The human Enzyme-Linked Immuno-Sorbent Assay (ELISA) has been developed to measure human insulin in human and rat plasma or buffer system. In this way the ELISA could be used to determine the insulin concentration in plasma samples derived from pharmacokinetic experiments.
The assay is based on the immunochemical “sandwich” principle using two monoclonal antibodies, i.e. a solid phase bound, capture antibody and a detection antibody which is labeled with horseradish peroxidase (HRP).
The plate was washed to remove unbound enzyme-labeled antibody and subsequently the 3,3′,5,5′-tetramethylbenzidine/H2O2 substrate solution was added. The reaction was stopped with 0.5 M sulphuric acid and the microtiter plate was read spectrophotometrically at 450 nm. The intensity of colour is directly proportional to the concentration of insulin. Then for each plasma sample the mean concentration (mol/L) of insulin was determined.
The rats were anaesthetized by inhalation of a mixture of O2/N2O/isoflurane, after which the right jugular vein was cannulated. […] Blood was centrifuged after which the plasma was siphoned off and stored at −20° C. until use. The concentration of the tested compounds in the plasma samples were determined using the human ELISA against a calibration curve which was made of the stock solution of the tested compound itself. The concentration in the samples was expressed in nmol/L and the kinetic parameters were calculated with the noncompartment model of WinNonlin.
In another data set the target is T1, rat ATIII (Rattus norvegicus, UniProt A0A8I5Y9G3).
T1 construct: from tissue; host or cells: plasma of male Wistar rats
T1 sequence (A0A8I5Y9G3 35-465): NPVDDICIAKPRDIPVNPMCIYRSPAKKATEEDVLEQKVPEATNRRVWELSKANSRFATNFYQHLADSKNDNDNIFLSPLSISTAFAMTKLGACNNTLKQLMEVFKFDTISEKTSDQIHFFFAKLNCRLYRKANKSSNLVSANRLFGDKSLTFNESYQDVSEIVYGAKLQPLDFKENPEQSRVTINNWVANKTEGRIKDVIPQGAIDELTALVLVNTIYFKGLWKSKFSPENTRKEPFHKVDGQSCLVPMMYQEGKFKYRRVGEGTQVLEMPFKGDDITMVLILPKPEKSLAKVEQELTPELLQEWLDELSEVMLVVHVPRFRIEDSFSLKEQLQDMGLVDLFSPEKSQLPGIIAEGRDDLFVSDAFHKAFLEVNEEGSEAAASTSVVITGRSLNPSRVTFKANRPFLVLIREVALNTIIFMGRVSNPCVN
Put plainly: Determination of (poly)peptide-pentasaccharide-ATIII complex in rat plasma (sandwich ELISA). It is filed as binding. The settings on record: plasma 1 min after i.v. 3.5 nmol/kg in rat.

Where [6] appears, read: Table 6, rat, i.v., 125I label, not corrected for dehalogenation, n = 3.

hATIII, sequence (P01008 33-464): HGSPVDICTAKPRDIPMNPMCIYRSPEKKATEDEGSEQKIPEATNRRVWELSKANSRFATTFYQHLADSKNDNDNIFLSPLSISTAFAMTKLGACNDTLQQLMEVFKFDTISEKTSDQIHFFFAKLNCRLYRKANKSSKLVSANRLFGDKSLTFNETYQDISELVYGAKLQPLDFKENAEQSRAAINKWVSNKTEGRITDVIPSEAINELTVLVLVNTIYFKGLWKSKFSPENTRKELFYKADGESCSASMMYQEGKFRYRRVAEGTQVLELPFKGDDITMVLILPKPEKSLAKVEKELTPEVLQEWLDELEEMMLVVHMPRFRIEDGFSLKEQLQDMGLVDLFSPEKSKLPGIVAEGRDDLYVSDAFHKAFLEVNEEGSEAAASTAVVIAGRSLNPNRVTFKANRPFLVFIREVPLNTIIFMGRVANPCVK
Procedure for glucose levels: The animals were fasted overnight (16 hours) prior to the experiment. In the morning blood was sampled from all the rats by cutting a little piece of the tail, after which the blood was dropped on a test strip and the glucose levels were measured with an ACCU-Check Sensor blood glucose monitor (Roche Diagnostics). […] At various time intervals blood samples were taken by removing the crusted blood, after which the glucose content was determined immediately as described.

Consider `COC[C@H]1O[C@H](OC)[C@H](OS(=O)(=O)O)[C@@H](OC)[C@@H]1O[C@@H]1O[C@@H](C(=O)O)[C@@H](O[C@H]2O[C@H](COS(=O)(=O)O)[C@@H](O[C@@H]3O[C@H](C(=O)O)[C@@H](O[C@H]4O[C@H](COS(=O)(=O)O)[C@@H](OCCOCCOCCOCCN)[C@H](OC)[C@H]4OC)[C@H](OC)[C@H]3OC)[C@H](OS(=O)(=O)O)[C@H]2OS(=O)(=O)O)[C@H](OC)[C@H]1OC` [Compound 7], for which, at hATIII, the IC50 amounted to 96 nM.
As to `[125IH]` [^125I^−], the elimination half-life in data set [1] (rats, control, data not shown) was 192 min.
As to insulin detemir, the “blood glucose lowering activity (comparative example)” value with glucose levels was “less pronounced and less prolonged activity”.
As to calcitonin, in data set [2], the “t ½” value is 20 min.
Take `CC[C@H](C)[C@H](NC(=O)[C@H](CCC(N)=O)NC(=O)[C@H](Cc1c[nH]cn1)NC(=O)[C@H](C)N)C(=O)N[C@@H](Cc1ccc(O)cc1)C(=O)N[C@@H](CCC(N)=O)C(=O)N[C@@H](Cc1ccccc1)C(=O)N[C@H](C(=O)N[C@@H](CC(=O)O)C(=O)N[C@@H](CCCCN)C(=O)N[C@@H](CC(=O)O)C(=O)N[C@@H](CCCCN)C(=O)N[C@@H](CC(=O)O)C(=O)N[C@@H](CC(N)=O)C(=O)N[C@H](C(=O)N[C@@H](C)C(=O)N1CCC[C@H]1C(=O)N[C@@H](CCCNC(=N)N)C(=O)N[C@@H](CO)C(=O)N[C@@H](CCCCN)C(=O)N[C@H](C(=O)N[C@@H](CO)C(=O)N1CCC[C@H]1C(=O)N[C@@H](CCC(N)=O)C(=O)NCC(=O)N[C@@H](Cc1ccc(O)cc1)C(N)=O)[C@@H](C)CC)C(C)C)[C@@H](C)O` [ADM(27-52)] (H-AHQIYQFTDKDKDNVAPRSKISPQGY-NH2; N-terminus and C-terminus assumed): in data set [1] (rat, in vivo, iv), the Cl amounted to 112 ± 9 mL/h and the Vss was 556 ± 48 ml/rat. For the same molecule, at hATIII, the “competitive binding potential to ATIII (in words)” value is on record as “no significant competitive binding to ATIII”.
With `CCN=C(NCC)NCCCC[C@H](NC(=O)[C@H](CC(C)C)NC(=O)[C@@H](CCCCNC(=NCC)NCC)NC(=O)[C@H](Cc1ccc(O)cc1)NC(=O)[C@H](CO)NC(=O)[C@@H](Cc1cccnc1)NC(=O)[C@@H](Cc1ccc(Cl)cc1)NC(=O)[C@@H](Cc1ccc2ccccc2c1)NC(C)=O)C(=O)N1CCC[C@H]1C(=O)N[C@H](C)C(N)=O` [ganirelix] (Ac-[d2Nal][dPhe(4-Cl)][d3Pal]SY[d(hArg(Et2))]L[hArg(Et2)]P[dA]-NH2), the “t ½” value in data set [2] is 720 min. Besides, on hATIII, the “competitive binding potential to ATIII (in words)” value is “no competitive binding to ATIII”. Further, the T½ in data set [3] was 84 min.
`COC1OC(COS(=O)(=O)O)C(OC2OC(C(=O)O)C(OC3OC(COS(=O)(=O)O)C(OC4OC(C(=O)O)C(OC5OC(COS(=O)(=O)O)C(OCCOCCOCCOCCN)C(OC)C5OC)C(OC)C4OC)C(OS(=O)(=O)O)C3OS(=O)(=O)O)C(OC)C2OC)C(OC)C1OS(=O)(=O)O` (stereo not drawn) [Compound 8]: the IC50 on hATIII was 58 nM.
`C[C@@H](O)[C@@H]1NC(=O)[C@H](CCCCN)NC(=O)[C@@H](Cc2c[nH]c3ccccc23)NC(=O)[C@H](Cc2ccccc2)NC(=O)[C@@H](NC(=O)[C@H](N)Cc2ccccc2)CSSC[C@@H](C(=O)N[C@H](CO)[C@@H](C)O)NC1=O` [octreotide]: the “t ½” value in data set [2] was 102 min.
“recH insulin: recombinant human insulin (batch SIHR017, from Diosynth)”: in data set [4], the AUCinf is reported as 481 h · cpm/0.1 mL, the Cl was 69.3 mL/min/kg, the mean residence time (MRT) amounted to 30 min and the Vss is recorded as 2.225 L/kg. For the same molecule, in data set [5], the Cl was found to be 13.3 ± 2 mL/min/kg, the MRT stood at 0.84 ± 6 min, the T½ eli stood at 1.98 ± 0.06 min and the Vss amounted to 0.012 ± 0.002 L/kg. Besides, the “binding to rat ATIII in circulation (complex detected)” value with rat ATIII is on record as “cannot form a complex with ATIII”.
On to `CC[C@H](C)[C@H](NC(=O)[C@H](CCC(N)=O)NC(=O)[C@H](Cc1c[nH]cn1)NC(=O)[C@H](C)NC(=O)CCCN1C(=O)CC(SCCOCCOCCOCCOCC(=O)NCCOCCOCCOCCO[C@H]2[C@H](OC)[C@@H](OC)[C@@H](O[C@H]3[C@H](OC)[C@@H](OC)[C@H](O[C@H]4[C@H](OS(=O)(=O)O)[C@@H](OS(=O)(=O)O)[C@@H](O[C@H]5[C@H](OC)[C@@H](OC)[C@H](O[C@H]6[C@H](OS(=O)(=O)O)[C@@H](OS(=O)(=O)O)[C@@H](OC)O[C@@H]6COS(=O)(=O)O)O[C@H]5C(=O)O)O[C@@H]4COS(=O)(=O)O)O[C@@H]3C(=O)O)O[C@@H]2COS(=O)(=O)O)C1=O)C(=O)N[C@@H](Cc1ccc(O)cc1)C(=O)N[C@@H](CCC(N)=O)C(=O)N[C@@H](Cc1ccccc1)C(=O)N[C@H](C(=O)N[C@@H](CC(=O)O)C(=O)N[C@@H](CCCCN)C(=O)N[C@@H](CC(=O)O)C(=O)N[C@@H](CCCCN)C(=O)N[C@@H](CC(=O)O)C(=O)N[C@@H](CC(N)=O)C(=O)N[C@H](C(=O)N[C@@H](C)C(=O)N1CCC[C@H]1C(=O)N[C@@H](CCCNC(=N)N)C(=O)N[C@@H](CO)C(=O)N[C@@H](CCCCN)C(=O)N[C@H](C(=O)N[C@@H](CO)C(=O)N1CCC[C@H]1C(=O)N[C@@H](CCC(N)=O)C(=O)NCC(=O)N[C@@H](Cc1ccc(O)cc1)C(N)=O)[C@@H](C)CC)C(C)C)[C@@H](C)O` (stereo partly drawn) [Compound 39] (X1-AHQIYQFTDKDKDNVAPRSKISPQGY-NH2), for which, in data set [1] (setting [6]), the Cl was found to be 5.0 ± 0.1 mL/h and the Vss is recorded as 80 ± 3.3 ml/rat.
As to `COC1OC(COS(=O)(=O)O)C(OC2OC(C(=O)O)C(OC3OC(COS(=O)(=O)O)C(OC4OC(C(=O)O)C(OC5OC(COS(=O)(=O)O)C(OCCOCCOCCOCCN)C(OC)C5OC)C(OC)C4OC)C(OS(=O)(=O)O)C3OS(=O)(=O)O)C(OC)C2OC)C(OS(=O)(=O)O)C1OS(=O)(=O)O` (stereo not drawn) [Compound 9], the IC50 at hATIII came out at 5.5 nM.
